The results in this text go back to patent US20100104552A1, “ANTIBIOTIC SYNERGISM” (priority 2008, published 2010).

Format in all cases: cell-based
Test [1] deals with bacterial membrane. The test can be described thus: K+-efflux of exposed bacteria. Particulars: bacteria exposed to the defensin.
Test [2] relates to bacterial membrane. The test can be described thus: Trans-membrane potential of exposed bacteria. Particulars: bacteria exposed to the defensin.
For the next test, the system named is bacterial cells. Description: Traditional incorporation studies.
Test [3] deals with vancomycin-resistant Staphylococcus aureus (VRSA). Description: Cross-resistance with vancomycin resistance.

On to “GFGCNGPWNEDDLRCHNHCKSIKGYKGGYCAKGGFVCKCY [Defensin2114]”, for which the “K+-efflux” value in the test on bacterial membrane [1] is reported as “No K^+-efflux could be detected”. For the same substance, the trans-membrane potential entry in the test on bacterial membrane [2] is given as “remained intact”. The “incorporation of cell wall precursors” value in the test with bacterial cells is reported as “severely affected”. For the same substance, the cross-resistance result in test [3] was “No cross-resistance”.

As for Plectasin, the “K+-efflux” value with bacterial membrane [1] is given as “No K^+-efflux could be detected”. Besides, the trans-membrane potential entry with bacterial membrane [2] was “remained intact”. In addition, the “incorporation of cell wall precursors” value with bacterial cells is reported as “severely affected”. Moreover, the cross-resistance result in test [3] was “No cross-resistance”.
